Our source for the inhibition, Activity and Kd values is ChEMBL document CHEMBL4308834, “Novel Allosteric Activators for Ferroptosis Regulator Glutathione Peroxidase 4” (J Med Chem, 2018).

In test [1] the target is T1, Leukotriene A-4 hydrolase (Homo sapiens) (UniProt P09960).
T1 sequence (whole entry): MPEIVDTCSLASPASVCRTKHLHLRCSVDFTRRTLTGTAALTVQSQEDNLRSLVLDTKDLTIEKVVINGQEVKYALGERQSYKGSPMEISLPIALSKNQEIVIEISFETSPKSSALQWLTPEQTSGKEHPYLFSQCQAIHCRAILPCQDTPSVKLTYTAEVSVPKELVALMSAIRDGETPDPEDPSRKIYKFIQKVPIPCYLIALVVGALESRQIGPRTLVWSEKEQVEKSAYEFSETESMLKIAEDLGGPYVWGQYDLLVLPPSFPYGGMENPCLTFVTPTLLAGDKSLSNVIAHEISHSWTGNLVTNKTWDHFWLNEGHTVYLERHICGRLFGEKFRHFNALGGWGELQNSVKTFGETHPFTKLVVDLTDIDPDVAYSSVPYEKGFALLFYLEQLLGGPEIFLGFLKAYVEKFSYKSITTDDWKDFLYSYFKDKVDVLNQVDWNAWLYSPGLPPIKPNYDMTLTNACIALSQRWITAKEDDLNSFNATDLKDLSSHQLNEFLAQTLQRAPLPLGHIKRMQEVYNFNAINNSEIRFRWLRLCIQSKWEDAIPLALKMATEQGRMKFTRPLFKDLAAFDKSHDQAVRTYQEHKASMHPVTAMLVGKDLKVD
Nature of the test: Inhibition of LTA4H (unknown origin) at 500 uM preincubated for 15 mins followed by LTA4 substrate addition and measured after 10 mins by ELISA relative to control.

For test [2], the species on record is Homo sapiens. Put plainly: Activation of recombinant His-tagged human cytosolic GPX4 U46C mutant expressed in Escherichia coli M15 assessed as increase in oxidized glutathione-mediated oxidation of NADPH to NADP+ at 200 uM using tert-butyl hydroperoxide as substrate preincubated for 5 mins followed by substrate addition measured for 6 mins by glutathione reductase enzyme coupled fluorescence assay relative to control.

A short description of test [3]: Binding affinity to recombinant His-tagged human cytosolic GPX4 U46C mutant expressed in Escherichia coli M15 by SPR analysis.

pKd: −log10 of the molar value.

In turn, `NS(=O)(=O)c1ccc(NC(S)=NCc2ccc(Cl)cc2)cc1` returned an inhibition in test [1] of 17%. Besides, the Activity in test [2] stood at 127%. Besides, the pKd in test [3] is 4.20.
